Assay results: patent US6670363B1, “Azole compounds as therapeutic agents for fungal infections” (Ranbaxy Laboratories Limited, priority 2000, dated 2003)
Values after ≈ are worked out from the molar mass of the structure shown.

Key:
A. fumigatus s 1008 = assay: In vitro MIC, NCCLS M38P broth method (RPMI 1640/MOPS pH7), Aspergillus fumigatus; format: cell-based; conditions: for MIC, A. fumigatus 1008: A. fumigatus strain 1008
Candida = assay: In vitro MIC, NCCLS M27A, Candida species; format: cell-based; design: MIC, Candida albicans 1.549 / MIC, Candida albicans Y-01-19 / MIC, C. krusei 766-1 / MIC, C. krusei Q. C / MIC, Candida tropicalis ATCC / MIC, C. glabrata 90030: unit not given beside the values; MIC, Candida albicans A 26 / MIC, C. parapsilosis Q. C.: unit not given here; conditions: for MIC, C. glabrata 90030: C. glabrata strain 90030; for MIC, C. krusei 766-1: C. krusei strain 766-1; for MIC, C. krusei Q. C: C. krusei strain Q. C; for MIC, C. parapsilosis Q. C.: C. parapsilosis strain Q. C.; for MIC, Candida albicans 1.549: Candida albicans strain 1.549; for MIC, Candida albicans A 26: Candida albicans strain A 26; for MIC, Candida albicans Y-01-19: Candida albicans strain Y-01-19
Cryptococcus neoformans = assay: In vitro MIC, NCCLS M27A, Cryptococcus neoformans; format: cell-based; design: MIC, C. neoformans I: unit not given beside the values; MIC, C. neoformans M 106: unit not given here; conditions: for MIC, C. neoformans I: C. neoformans strain I; for MIC, C. neoformans M 106: C. neoformans strain M 106
Histoplasma capsulatum = format: cell-based

Row | Compound | MIC, A. fumigatus 1008 (A. fumigatus s 1008) | MIC, C. glabrata 90030 (Candida) | MIC, C. krusei 766-1 (Candida) | MIC, C. krusei Q. C (Candida) | MIC, C. parapsilosis Q. C. (Candida) | MIC, Candida albicans 1.549 (Candida) | MIC, Candida albicans A 26 (Candida) | MIC, Candida albicans Y-01-19 (Candida) | MIC, Candida tropicalis ATCC (Candida) | MIC, C. neoformans I (Cryptococcus neoformans) | MIC, C. neoformans M 106 (Cryptococcus neoformans) | MIC, H. capsulatum (Histoplasma capsulatum) | MIC (υg/ml) (A. fumigatus s 1008) (A. fumigatus s 1008) | melting point
1 | CCc1ccccc1N1CCN(c2ccc(-n3c(C)nn([C@H](C)[C@@](O)(Cn4cncn4)c4ccc(F)cc4F)c3=O)cc2)CC1 [Compound 32, 2-{[1R2S/1S2R]-2-(2,4-Difluorophenyl)-2-hydroxy-1-methyl-3-(1H-1,2,4-triazol-1-yl)propyl}-4-{4-[4-(2-ethylphenyl)-1-piperazinyl]phenyl}-3-(2H,4H)-5-methyl-1,2,4-triazolone] | >16 | 2.00 | >16 | 4.00 | 0.50 | >16 | <0.03 | 4.00 | <0.03 | 0.50 | 0.50 | 0.25 µg/mL (≈ 0.407 µM) |  | 
2 | Cc1nn([C@H](C)[C@](O)(Cn2cncn2)c2ccc(F)cc2F)c(=O)n1-c1ccc(N2CCN(c3ccc(Cl)cc3Cl)CC2)cc1 [Compound 33, 2-{[1R2R/1S2S]-2-(2,4-Difluorophenyl)-2-hydroxy-1-methyl-3-(1H-1,2,4-triazol-1-yl)propyl}-4-{4-[4-(2,4-dichlorophenyl)-1-piperazinyl]phenyl}-3-(2H,4H)-5-methyl-1,2,4-triazolone] | 0.50 | 0.25 | 0.25 | 0.06 | <0.03 | 0.13 | <0.03 | 0.13 | <0.03 | <0.03 | <0.03 | 0.12 µg/mL (≈ 0.183 µM) |  | 
3 | COc1ccccc1N1CCN(c2ccc(-n3c(C)nn(CC(O)(Cn4cncn4)c4ccc(F)cc4F)c3=O)cc2)CC1 (stereo not drawn) [Compound 35, 2-[2-(2,4-Difluorophenyl)-2-hydroxy-3-(1H-1,2,4-triazol-1-yl)propyl]-4-{4-[4-(2-methoxyphenyl)-1-piperazinyl]phenyl}-3-(2H,4H)-5-methyl-1,2,4-triazolone] | >12.5 | 12.50 | 12.50 | 3.12 | 0.20 | 1.56 | <0.02 | 3.12 | <0.02 | 0.80 | 3.12 | 0.2 µg/mL (≈ 0.332 µM) |  | 
4 | Cc1nn(CC(O)(Cn2cncn2)c2ccc(F)cc2F)c(=O)n1-c1ccc(N2CCN(c3ccc(F)cc3)CC2)cc1 (stereo not drawn) [Compound 36, 2-[2-(2,4-Difluorophenyl)-2-hydroxy-3-(1H-1,2,4-triazol-1-yl)propyl]-4-{4-[4-(4-fluorophenyl)-1-piperazinyl]phenyl}-3-(2H,4H)-5-methyl-1,2,4-triazolone] | >12.5 | 3.12 | 3.12 | 1.56 | <0.02 | 0.20 | <0.02 | 0.40 | <0.02 | 0.20 | 0.40 | < 0.02 µg/mL |  | 
5 | O=c1n(-c2ccc(N3CCN(c4ccccc4)CC3)cc2)cnn1CC(O)(Cn1cncn1)c1ccc(F)cc1F (stereo not drawn) [Compound 45, 2-[2-(2,4-Difluorophenyl)-2-hydroxy-3-(1H-1,2,4-triazol-1-yl)propyl]-4-{4-[1-phenyl-1-piperazinyl]phenyl}-3-(2H,4H)-1,2,4-triazolone] | >12.5 | 0.10 | 0.80 | 0.10 | <0.02 | 0.05 | <0.02 | 0.05 | 3.12 | <0.02 | 0.10 | 3.12 µg/mL (≈ 5.59 µM) |  | 
6 | Cc1nn(CC(O)(Cn2cncn2)c2ccc(F)cc2F)c(=O)n1-c1ccc(N2CCN(c3ccc(Cl)cc3)CC2)cc1 (stereo not drawn) [Compound 46, 2-[2-(2,4-Difluorophenyl)-2-hydroxy-3-(1H-1,2,4-triazol-1-yl)propyl]-4-{4-[4-(4-chlorophenyl)-1-piperazinyl]phenyl}-3-(2H,4H)-5-methyl-1,2,4-triazolone] | >12.5 | 6.25 | 3.12 | 0.80 | <0.02 | 0.40 | <0.02 | 0.40 | 0.05 | 0.05 | 0.40 | 0.1 µg/mL (≈ 0.165 µM) |  | 
7 | O=c1n(-c2ccc(N3CCN(c4ccc(F)cc4Cl)CC3)cc2)cnn1CC(O)(Cn1cncn1)c1ccc(F)cc1F (stereo not drawn) [Compound 58, 2-[2-(2,4-Difluorophenyl)-2-hydroxy-3-(1H-1,2,4-triazol-1-yl)propyl]-4-{4-[4-(2-chloro-4-fluorophenyl)-1-piperazinyl]phenyl}-3-(2H,4H)-1,2,4-triazolone] | 2.00 | 0.25 | 1.00 | 0.25 | <0.03 | 0.03 | <0.03 | 0.03 | <0.03 | <0.03 | <0.03 | 0.004 µg/mL (≈ 0.00655 µM) |  | 
8 | COc1ccc(F)cc1N1CCN(c2ccc(-n3cnn(CC(O)(Cn4cncn4)c4ccc(F)cc4F)c3=O)cc2)CC1 (stereo not drawn) [Compound 59, 2-[2-(2,4-Difluorophenyl)-2-hydroxy-3-(1H-1,2,4-triazol-1-yl)propyl]-4-{4-[4-(2-methoxy-5-fluorophenyl)-1-piperazinyl]phenyl}-3-(2H,4H)-1,2,4-triazolone] | >16 | 1.00 | 4.00 | 1.00 | <0.03 | 1.00 | <0.03 | 0.50 | <0.03 | <0.03 | 0.12 | < 0.03 µg/mL |  | 
9 | COC(=O)Cc1ccc(N2CCN(c3ccc(-n4cnn(CC(O)(Cn5cncn5)c5ccc(F)cc5F)c4=O)cc3)CC2)cc1 (stereo not drawn) [Compound 93, 2-[2-(2,4-Difluorophenyl)-2-hydroxy-3-(1H-1,2,4-triazol-1-yl)propyl]-4-{4-[4-(4-(2-methoxy-2-oxoethyl)phenyl)-1-piperazinyl]phenyl}-3-(2H,4H)-1,2,4-triazolone] |  |  |  |  |  |  |  |  |  |  |  |  | >12.5 µg/mL | 66 to 69 °C
10 | O=C(O)CCc1ccc(N2CCN(c3ccc(-n4cnn(CC(O)(Cn5cncn5)c5ccc(F)cc5F)c4=O)cc3)CC2)cc1 (stereo not drawn) [Compound 94, 2-[2-(2,4-Difluorophenyl)-2-hydroxy-3-(1H-1,2,4-triazol-1-yl)propyl]-4-{4-[4-(4-(carboxyethyl)-phenyl)-1-piperazinyl]phenyl}-3-(2H,4H)-1,2,4-triazolone] |  |  |  |  |  |  |  |  |  |  |  |  | >12.5 µg/mL | 235 to 239 °C
11 | O=c1n(-c2ccc(N3CCN(c4ccc(CCO)cc4)CC3)cc2)cnn1CC(O)(Cn1cncn1)c1ccc(F)cc1F (stereo not drawn) [Compound 95, 2-[2-(2,4-Difluorophenyl)-2-hydroxy-3-(1H-1,2,4-triazol-1-yl)propyl]-4-{4-[4-(4-(2-hydroxyethyl)phenyl)-1-piperazinyl]phenyl}-3-(2H,4H)-1,2,4-triazolone] |  |  |  |  |  |  |  |  |  |  |  |  | >12.5 µg/mL | 114 to 115 °C
